The record followed here is patent publication US7186831B2, “5-halo-2-alkyl[1,2,4]triazolo[1,5-a]pyrimidin-7-amines” (priority 2001, dated 2007).

Structures are written as SMILES.

The data set can be described thus: log P by HPLC. It is filed as physicochemical. The note with it: EEC directive 79/831 Annex V. A8 by HPLC (gradient method, acetonitrile/0.1% aqueous phosphoric acid).
`Cc1nc2nc(Cl)c(-c3ccc(F)cc3F)c(N3CCC4(CC3)OCCO4)n2n1` [compound 284] yielded a logP of 2.68.
To `Cc1nc2nc(Cl)c(-c3ccc(F)cc3F)c(N3CCCCC3C)n2n1` (stereo not shown) [compound 285] belongs 3.7; to `Cc1nc2nc(Cl)c(-c3ccc(F)cc3F)c(N3CCCC(C)C3)n2n1` (stereo not shown) [compound 286], 3.74.
With `Cc1nc2nc(Cl)c(-c3ccc(F)cc3F)c(N3CCC(C)CC3)n2n1` [compound 287], the logP was 3.75.
`Cc1nc2nc(Cl)c(-c3ccc(F)cc3F)c(N3CCC(C)(C)CC3)n2n1` [compound 288] came in with a lipophilicity (logP) of 4.01.
The value for `CC(=O)C1CCN(c2c(-c3ccc(F)cc3F)c(Cl)nc3nc(C)nn23)CC1` [compound 289] was 2.5; that for `CCC1=CCN(c2c(-c3ccc(F)cc3F)c(Cl)nc3nc(C)nn23)CC1` [compound 290] was 3.94; that for `CC1=CCCN(c2c(-c3ccc(F)cc3F)c(Cl)nc3nc(C)nn23)C1` [compound 291] was 3.49.
Turning to `COC(=O)C1CCN(c2c(-c3ccc(F)cc3F)c(Cl)nc3nc(C)nn23)CC1` [compound 292], the logP turned out to be 2.78.
The value for `Cc1nc2nc(Cl)c(-c3ccc(F)cc3F)c(N3CCC(C(F)(F)F)CC3)n2n1` [compound 293] was 3.49; that for `CC(=O)NC1CCN(c2c(-c3ccc(F)cc3F)c(Cl)nc3nc(C)nn23)CC1` [compound 294] was 1.85; that for `Cc1nc2nc(Cl)c(-c3ccc(F)cc3F)c(N3CCCCC3)n2n1` [compound 295] was 3.32.
The value for `Cc1nc2nc(Cl)c(-c3ccc(F)cc3F)c(N3CCOCC3)n2n1` [compound 296] was 2.3; that for `Cc1nc2nc(Cl)c(-c3ccc(F)cc3F)c(N3CCSCC3)n2n1` [compound 297] was 2.97; that for `Cc1ccc(Nc2c(-c3ccc(F)cc3F)c(Cl)nc3nc(C)nn23)cc1` [compound 298] was 3.05.
Regarding `Cc1nc2nc(Cl)c(-c3ccc(F)cc3F)c(Nc3ccc(F)cc3)n2n1` [compound 299], the logP worked out at 2.7.
To `Cc1nc2nc(Cl)c(-c3ccc(F)cc3F)c(N3CCc4ccccc4C3)n2n1` [compound 300] belongs 3.28; to `Cc1nc2nc(Cl)c(-c3ccc(F)cc3F)c(NC(C)CC(C)C)n2n1` (stereo not shown) [compound 301], 3.7.
To `Cc1nc2nc(Cl)c(-c3c(F)cccc3Cl)c(N3CCCC(C)C3)n2n1` (stereo not shown) [compound 302] belongs 3.99; to `Cc1nc2nc(Cl)c(-c3c(F)cccc3F)c(N3CCC(O)C3)n2n1` (stereo not shown) [compound 303], 1.73.
To `Cc1nc2nc(Cl)c(-c3c(F)cccc3F)c(N3CCCC3C)n2n1` (stereo not shown) [compound 304] belongs 3.02.
In turn, `CC(=O)NC1CCN(c2c(-c3c(F)cccc3F)c(Cl)nc3nc(C)nn23)C1` (stereo not shown) [compound 305] showed a logP of 1.64.
On to `Cc1nc2nc(Cl)c(-c3c(F)cccc3F)c(N3CCC(N(C)C)C3)n2n1` (stereo not shown) [compound 306], for which the logP is 1.18.
With `Cc1nc2nc(Cl)c(-c3c(F)cccc3F)c(N3CCC(O)CC3)n2n1` [compound 307], the logP stood at 1.83.
To `Cc1nc2nc(Cl)c(-c3c(F)cccc3F)c(N3CC=CCC3)n2n1` [compound 308] belongs 3.01; to `Cc1nc2nc(Cl)c(-c3c(F)cccc3F)c(N3CCC4(CC3)OCCO4)n2n1` [compound 309], 2.6; to `Cc1nc2nc(Cl)c(-c3c(F)cccc3F)c(N3CC(C)CC(C)C3)n2n1` (stereo not shown) [compound 310], 4.08.
To `Cc1nc2nc(Cl)c(-c3c(F)cccc3F)c(N3CCCCC3C)n2n1` (stereo not shown) [compound 311] belongs 3.57; to `Cc1nc2nc(Cl)c(-c3c(F)cccc3F)c(N3CCCC(C)C3)n2n1` (stereo not shown) [compound 312], 3.63; to `Cc1nc2nc(Cl)c(-c3c(F)cccc3F)c(N3CCC(C)CC3)n2n1` [compound 313], 3.64.
`Cc1nc2nc(Cl)c(-c3c(F)cccc3F)c(N3CCCC(O)C3)n2n1` (stereo not shown) [compound 314]: the logP is 2.03.
The compound `Cc1nc2nc(Cl)c(-c3c(F)cccc3F)c(N3CCC(C)(C)CC3)n2n1` [compound 315] displayed a logP of 3.91.
As to `CCC1=CCN(c2c(-c3c(F)cccc3F)c(Cl)nc3nc(C)nn23)CC1` [compound 316], the logP is on record as 3.84.
To `CC1=CCCN(c2c(-c3c(F)cccc3F)c(Cl)nc3nc(C)nn23)C1` [compound 317] belongs 3.39.
The value for `COC(=O)C1CCN(c2c(-c3c(F)cccc3F)c(Cl)nc3nc(C)nn23)CC1` [compound 318] was 2.69; that for `Cc1nc2nc(Cl)c(-c3c(F)cccc3F)c(N3CCC(Br)CC3)n2n1` [compound 319] was 3.33.
To `COC(=O)C1CCCCN1c1c(-c2c(F)cccc2F)c(Cl)nc2nc(C)nn12` (stereo not shown) [compound 320] belongs 3.04.
Compound `Cc1nc2nc(Cl)c(-c3c(F)cccc3F)c(N3CCC(NC(=O)OC(C)(C)C)CC3)n2n1` [compound 321] had a logP of 3.15.
In turn, `Cc1nc2nc(Cl)c(-c3ccccc3F)c(N3CCC(N4CCOCC4)CC3)n2n1` [compound 322] showed a lipophilicity (logP) of 1.26.
Compound `CC(=O)NC1CCN(c2c(-c3c(F)cccc3F)c(Cl)nc3nc(C)nn23)CC1` [compound 323] yielded a logP of 1.78.
To `Cc1nc2nc(Cl)c(-c3c(F)cccc3F)c(N3CCN(C)CC3)n2n1` [compound 324] belongs 1.12; to `Cc1cccc(Nc2c(-c3c(F)cccc3F)c(Cl)nc3nc(C)nn23)c1` [compound 326], 2.89; to `Cc1nc2nc(Cl)c(-c3c(F)cccc3F)c(N3CCc4ccccc4C3)n2n1` [compound 327], 3.22.
To `Cc1nc2nc(Cl)c(-c3c(F)cccc3F)c(NCC(C)C)n2n1` [compound 328] belongs 2.85.
In turn, `Cc1nc2nc(Cl)c(-c3c(F)cccc3F)c(NCC(C)(C)C)n2n1` [compound 329] registered a logP of 3.27.
The value for `Cc1nc2nc(Cl)c(-c3c(F)cccc3F)c(NC(C)CC(C)C)n2n1` (stereo not shown) [compound 330] was 3.55; that for `C#CCN(C)c1c(-c2c(F)cccc2F)c(Cl)nc2nc(C)nn12` [compound 331] was 2.54; that for `Cc1nc2nc(Cl)c(-c3c(F)cccc3F)c(N(C)CC3OCCO3)n2n1` [compound 332] was 2.43.
`C=CCN(C)c1c(-c2c(F)cccc2F)c(Cl)nc2nc(C)nn12` [compound 333] had a logP of 2.95.
To `COC(CN(C)c1c(-c2c(F)cccc2F)c(Cl)nc2nc(C)nn12)OC` [compound 334] belongs 2.55.
Compound `Cc1nc2nc(Cl)c(-c3c(F)cccc3F)c(N(C)CC(C)C)n2n1` [compound 335] gave a logP of 3.37.
The value for `COCCN(C)c1c(-c2c(F)cccc2F)c(Cl)nc2nc(C)nn12` [compound 336] was 2.45; that for `C=C(C)CN(C)c1c(-c2c(F)cccc2F)c(Cl)nc2nc(C)nn12` [compound 337] was 3.3.
As for `CCCCN(C)c1c(-c2c(F)cccc2F)c(Cl)nc2nc(C)nn12` [compound 338], the logP stood at 3.46.
To `C=C(C)CN(CC)c1c(-c2c(F)cccc2F)c(Cl)nc2nc(C)nn12` [compound 339] belongs 3.65.

For orientation: logP means a log measure of how a compound divides between an organic and an aqueous phase. A higher logP goes with higher lipophilicity.
